Reference: patent publication US11999727B2 (Tango Therapeutics, Inc., priority 2020, dated 2024)

Tests used:
PRMT5 [1] = target: T1, PRMT5 (Homo sapiens, UniProt O14744); assay: PRMT5 biochemical IC50 assay with SAM as cofactor; conditions: PRMT5, SAM as cofactor; read-out: SAM IC50
T1 construct: purchased Viva (custom protein)

PRMT5 [2] = target: T1, PRMT5; assay: PRMT5 biochemical IC50 assay with no cofactor; conditions: PRMT5, no cofactor
From the text: Table 1 indicates IC50 values (μM) against PRMT5 for exemplary compounds in the presence of SAM as cofactor, with no cofactor, and with MTA as cofactor, respectively (columns 4-6). […] Ki values can be calculated from the IC50 values as described in the Examples section. As detailed in the Examples section, for the assay performed in the presence of SAM, IC50=Ki×1.5 (Ki=IC50/1.5).

PRMT5 [3] = target: T1, PRMT5; assay: PRMT5 biochemical IC50 assay with MTA as cofactor; conditions: PRMT5, MTA as cofactor; read-out: MTA IC50
[4] = tested on: HAP1 MTAP-intact cell line; assay: SDMA in-cell western assay, HAP1 MTAP-intact; assay type: cell-based; conditions: Homo sapiens, HAP1, SDMA in-cell western, HAP1 MTAP-intact; read-out: MTAP HAP1 intact IC50
Procedure, shortened: (§1)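 IC50 values come from SDMA signal quantified by in-cell western in two HAP1 lines, one with native MTAP levels and one lacking MTAP.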

[5] = tested on: HAP1 MTAP-deleted cell line; assay: SDMA in-cell western assay, HAP1 MTAP-deleted; assay type: cell-based; conditions: for IC50: Homo sapiens, HAP1, SDMA in-cell western, HAP1 MTAP-deleted; for MTAP intact/deleted ratio: SDMA in-cell western
Procedure, shortened: as §1

[6] = tested on: HAP1 MTAP-deleted cell line; assay: Viability assay, MTAP-deleted cell line; assay type: cell-based; conditions: Homo sapiens, read-out: HAP1 MTAP deleted viability
From the text: Table 1 additionally indicates IC50 values in a viability assay for the MTAP-deleted cell line (column 10), indicating the effect of treatment with compound on cell survival.

[7] = read-out: No Cofactor/ rel IC50
[8] = read-out: HAP 1 MTAP deleted IC50
[9] = IC50 ratio HAP1 MTAP-intact / HAP1 MTAP-deleted
[10] = HAP1, viability assay, MTAP-deleted cell line
[11] = read-out: HAP1 MTAP deleted IC50
[12] = IC50 ratio HAP1 MTAP-intact vs HAP1 MTAP-deleted
[13] = HAP1, viability, HAP1 MTAP-deleted cell line

T1 sequence (O14744 whole entry): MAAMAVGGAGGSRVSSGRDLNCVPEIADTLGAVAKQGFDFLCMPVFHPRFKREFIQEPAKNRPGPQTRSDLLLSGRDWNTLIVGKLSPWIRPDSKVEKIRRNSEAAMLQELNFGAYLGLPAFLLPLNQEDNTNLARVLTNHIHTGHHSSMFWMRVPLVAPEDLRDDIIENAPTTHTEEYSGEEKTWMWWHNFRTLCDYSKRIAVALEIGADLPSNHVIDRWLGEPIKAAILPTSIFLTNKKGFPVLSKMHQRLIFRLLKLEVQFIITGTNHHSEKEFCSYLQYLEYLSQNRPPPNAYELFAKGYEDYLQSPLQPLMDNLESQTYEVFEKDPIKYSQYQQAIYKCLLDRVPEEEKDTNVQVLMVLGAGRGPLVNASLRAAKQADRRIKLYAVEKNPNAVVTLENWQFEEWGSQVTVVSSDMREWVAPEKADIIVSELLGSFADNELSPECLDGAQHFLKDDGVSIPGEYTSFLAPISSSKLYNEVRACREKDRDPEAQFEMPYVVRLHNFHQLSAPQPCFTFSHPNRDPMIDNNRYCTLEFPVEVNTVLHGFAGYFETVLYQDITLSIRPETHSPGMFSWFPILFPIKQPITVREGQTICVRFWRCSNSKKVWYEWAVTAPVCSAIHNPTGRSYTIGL
T1 sequence (Q9BQA1 whole entry partner): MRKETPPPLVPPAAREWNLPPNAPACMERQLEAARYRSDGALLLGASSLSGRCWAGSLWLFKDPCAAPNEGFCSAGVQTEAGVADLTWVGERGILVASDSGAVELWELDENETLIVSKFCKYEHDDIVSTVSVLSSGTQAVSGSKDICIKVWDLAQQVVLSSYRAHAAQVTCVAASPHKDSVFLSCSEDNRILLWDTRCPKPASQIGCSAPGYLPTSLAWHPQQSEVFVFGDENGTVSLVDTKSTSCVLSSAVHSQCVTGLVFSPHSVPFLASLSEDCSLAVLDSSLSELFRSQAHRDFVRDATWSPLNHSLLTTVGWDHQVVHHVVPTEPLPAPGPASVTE

SMILES | IC50 (PRMT5 [1]) | IC50 (PRMT5 [2]; [7]) | IC50 (PRMT5 [3]) | IC50 [4] | IC50 [5, 8] | IC50 (PRMT5 [2]; read-out: No Cofactor/rel IC50) | IC50 [5, 11] | MTAP intact/deleted ratio [5, 9] | IC50 [6, 10] | MTAP intact/deleted ratio [5, 12] | IC50 ([6]; HAP1, viability assay, HAP1 MTAP-deleted) | IC50 [6, 13] | IC50 ([6]; HAP1, viability IC50, MTAP-deleted cell line)
C[C@@H]1CC[C@@H](c2cccs2)N(C(=O)C(=O)Nc2cncc(C(N)=O)c2)C1 (racemic) [Compound 99, 5-(2-(5-methyl-2-(thiophen-2-yl)piperidin-1-yl)-2-oxoacetamido)nicotinamide] | 0.05 to 0.5 µM | 0.05 to 0.5 µM | < 0.05 µM | > 1 µM | < 0.1 µM | – | – | A (an IC50 ratio greater than or equal to 10 fold) | 1 to 10 µM | – | – | – | –
Cc1cc(NC(=O)C(=O)N2C[C@@H](C)CC[C@@H]2c2ccc3[nH]ncc3n2)cnc1N (single isomer, unassigned) [Compound 780] | > 0.5 µM | – | > 0.5 µM | > 1 µM | – | > 0.5 µM | 0.1 to 1 µM | A (an IC50 ratio greater than or equal to 10 fold) | – | – | > 10 µM | – | –
CCc1cc(NC(=O)C(=O)N2C[C@@H](C)CC[C@@H]2c2ccc3sc([C@H]4CCCN(C)C4)nc3c2)cnc1N [Compound 1388, N-(6-amino-5-ethylpyridin-3-yl)-2-((2R,5S)-5-methyl-2-(2-(1-methylpiperidin-3-yl)benzo[d]thiazol-5-yl)piperidin-1-yl)-2-oxoacetamide] | < 0.05 µM | < 0.05 µM | < 0.05 µM | < 0.1 µM | < 0.1 µM | – | – | A (an IC50 ratio greater than or equal to 10 fold) | – | – | – | < 1 µM | –
CNc1ccc([C@@H]2CC[C@@H](C)CN2C(=O)C(=O)Nc2cncc(C(N)=O)c2)cn1 (racemic) [Compound 209, rac-5-{2-[(2R,5S)-5-Methyl-2-[6-(methylamino)pyridin-3-yl]piperidin-1-yl]-2-oxoacetamido}pyridine-3-carboxamide] | 0.05 to 0.5 µM | – | < 0.05 µM | > 1 µM | – | 0.05 to 0.5 µM | < 0.1 µM | A (an IC50 ratio greater than or equal to 10 fold) | 1 to 10 µM | – | – | – | –
C[C@@H]1CC[C@@H](c2ccc3sccc3c2)N(C(=O)C(=O)Nc2cncc(C(N)=O)c2)C1 (racemic) [Compound 409, rac-5-[[2-[(2S,5R)-2-(benzothiophen-5-yl)-5-methyl-1-piperidyl]-2-oxo-acetyl]amino]pyridine-3-carboxamide] | 0.05 to 0.5 µM | – | < 0.05 µM | > 1 µM | – | 0.05 to 0.5 µM | < 0.1 µM | A (an IC50 ratio greater than or equal to 10 fold) | 1 to 10 µM | – | – | – | –
CCc1cc(NC(=O)C(=O)N2C[C@@H](C)CC[C@@H]2c2ccc3cn(C4CC(C)(C)N(C)C(C)(C)C4)nc3c2)cnc1N (racemic) [Compound 1295, N-(6-Amino-5-ethyl-3-pyridyl)-2-oxo-2-[rac-(2R,5S)-5-methyl-2-[2-(1,2,2,6,6-pentamethyl-4-piperidyl)indazol-6-yl]-1-piperidyl]acetamide] | < 0.05 µM | < 0.05 µM | < 0.05 µM | < 0.1 µM | < 0.1 µM | – | – | A (an IC50 ratio greater than or equal to 10 fold) | – | – | – | < 1 µM | –

More lines, main results first:

IC50 (PRMT5 [1]) | IC50 (PRMT5 [2]; [7]) | IC50 (PRMT5 [3]) | IC50 [4] | IC50 [5, 8] | IC50 (PRMT5 [2]; read-out: No Cofactor/rel IC50) | IC50 [5, 11] | SMILES | MTAP intact/deleted ratio [5, 9] | IC50 [6, 10] | MTAP intact/deleted ratio [5, 12] | IC50 ([6]; HAP1, viability assay, HAP1 MTAP-deleted) | IC50 [6, 13] | IC50 ([6]; HAP1, viability IC50, MTAP-deleted cell line)
0.05 to 0.5 µM | – | < 0.05 µM | 0.1 to 1 µM | – | < 0.05 µM | < 0.1 µM | CCc1cc(NC(=O)C(=O)N2C[C@@H](C)CC[C@@H]2c2ccc(N3CCN(C)CC3)nc2)cnc1N (single isomer, unassigned) [Compound 1103] | – | < 1 µM | A (an IC50 ratio greater than or equal to 10 fold) | – | – | –
0.05 to 0.5 µM | – | < 0.05 µM | > 1 µM | – | 0.05 to 0.5 µM | 0.1 to 1 µM | COc1ccc([C@@H]2CC[C@@H](C)CN2C(=O)C(=O)Nc2cncc(C(N)=O)c2)cc1OC (racemic) [Compound 230, rac-5-{2-[(2R,5S)-2-(3,4-Dimethoxyphenyl)-5-methylpiperidin-1-yl]-2-oxoacetamido}pyridine-3-carboxamide] | A (an IC50 ratio greater than or equal to 10 fold) | 1 to 10 µM | – | – | – | –
0.05 to 0.5 µM | – | < 0.05 µM | 0.1 to 1 µM | – | 0.05 to 0.5 µM | < 0.1 µM | CCc1cc(NC(=O)C(=O)N2C[C@@H](C)CC[C@@H]2c2ccc3sc(-c4ccccn4)nc3c2)cnc1N [Compound 1238, N-(6-amino-5-ethylpyridin-3-yl)-2-((2R,5S)-5-methyl-2-(2-(pyridin-2-yl)benzo[d]thiazol-5-yl)piperidin-1-yl)-2-oxoacetamide] | – | < 1 µM | A (an IC50 ratio greater than or equal to 10 fold) | – | – | –
0.05 to 0.5 µM | – | < 0.05 µM | > 1 µM | < 0.1 µM | < 0.05 µM | – | CCc1cc(NC(=O)C(=O)N2C[C@@H](C)CC[C@@H]2c2ccc3c(c2)C(=O)NC3)cnc1N (single isomer, unassigned) [Compound 700] | A (an IC50 ratio greater than or equal to 10 fold) | – | – | – | – | < 1 µM
0.05 to 0.5 µM | – | < 0.05 µM | 0.1 to 1 µM | – | 0.05 to 0.5 µM | < 0.1 µM | Cc1cc(NC(=O)C(=O)N2C[C@H](C)CC[C@H]2c2cccc(N3CCN(C)CC3)c2)cnc1N (racemic) [Compound 1223, N-(6-amino-5-methylpyridin-3-yl)-2-(5-methyl-2-(3-(4-methylpiperazin-1-yl)phenyl)piperidin-1-yl)-2-oxoacetamide] | – | < 1 µM | A (an IC50 ratio greater than or equal to 10 fold) | – | – | –
0.05 to 0.5 µM | < 0.05 µM | < 0.05 µM | 0.1 to 1 µM | < 0.1 µM | – | – | CCc1cc(NC(=O)C(=O)N2C[C@@H](C)CC[C@@H]2c2ccc(N3C[C@H]4CN(C)CC[C@H]4C3)cc2)cnc1N (racemic) [Compound 1287, N-(6-amino-5-ethyl-3-pyridyl)-2-oxo-2-[rac-(2R,5S)-5-methyl-2-[4-[rac-(3aR,7aR)-5-methyl-3,3a,4,6,7,7a-hexahydro-1H-pyrrolo[3,4-c]pyridin-2-yl]phenyl]-1-piperidyl]acetamide] | A (an IC50 ratio greater than or equal to 10 fold) | – | – | – | < 1 µM | –
< 0.05 µM | < 0.05 µM | < 0.05 µM | < 0.1 µM | < 0.1 µM | – | – | CCc1cc(NC(=O)C(=O)N2C[C@@H](C)CC[C@@H]2c2ccc3sc(C4CCN(C)CC4C)nc3c2)cnc1N (stereo partly drawn) [Compound 1382, N-(6-amino-5-ethyl-3-pyridyl)-2-[(5S)-2-[2-(1,3-dimethyl-4-piperidyl)-1,3-benzothiazol-5-yl]-5-methyl-1-piperidyl]-2-oxo-acetamide] | A (an IC50 ratio greater than or equal to 10 fold) | – | – | – | < 1 µM | –
> 0.5 µM | > 0.5 µM | > 0.5 µM | > 1 µM | 0.1 to 1 µM | – | – | Cc1cc(NC(=O)C(=O)N2CCCCC2c2cccc3ocnc23)cnc1N (stereo not drawn) [Compound 140, N-(6-Amino-5-methyl-3-pyridyl)-2-[2-(1,3-benzoxazol-4-yl)-1-piperidyl]-2-oxo-acetamide] | A (an IC50 ratio greater than or equal to 10 fold) | > 10 µM | – | – | – | –
0.05 to 0.5 µM | – | < 0.05 µM | > 1 µM | – | 0.05 to 0.5 µM | < 0.1 µM | CN(C)c1cccc([C@@H]2CCCCN2C(=O)C(=O)Nc2cncc(C(N)=O)c2)c1 (single isomer, unassigned) [Compound 365] | A (an IC50 ratio greater than or equal to 10 fold) | 1 to 10 µM | – | – | – | –
